Results on eleven molecules are retold here after patent US5780498A, “Endothelin receptor antagonists” (Ciba-Geigy Japan Limited, priority 1993, dated 1998).

The target in one assay is T1, ETA receptor (Sus scrofa, UniProt Q29010).
T1 construct: The plasma membrane of porcine lung; from tissue; host or cells: porcine lung plasma membrane
T1 sequence (Q29010 21-427): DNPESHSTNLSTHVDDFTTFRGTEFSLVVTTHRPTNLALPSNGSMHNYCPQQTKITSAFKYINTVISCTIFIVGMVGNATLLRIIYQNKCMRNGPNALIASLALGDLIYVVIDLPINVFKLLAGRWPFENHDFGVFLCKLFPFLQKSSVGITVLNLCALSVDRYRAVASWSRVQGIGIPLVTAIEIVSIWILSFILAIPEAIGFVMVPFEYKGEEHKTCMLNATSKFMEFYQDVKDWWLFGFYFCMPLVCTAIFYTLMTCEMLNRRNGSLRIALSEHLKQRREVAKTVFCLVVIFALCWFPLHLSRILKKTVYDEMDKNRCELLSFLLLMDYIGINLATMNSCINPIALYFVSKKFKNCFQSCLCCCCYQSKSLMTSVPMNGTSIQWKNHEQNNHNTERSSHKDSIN
The assay is described as follows: Endothelin (ET) receptor binding assay, ETA ([125I]ET-1 in the presence of 1 nM nonlabeled ET-3, porcine lung plasma membrane). The following applies: for inhibition at 10 µM: 10^-5 M of the test compound, specific ETA binding; for Ki: from inhibition curves for the binding of [125I]ETs. As for the experimental part: (§1) Nonspecific binding is defined as membrane-associated radioactivity in the presence of saturating concentrations of ETs (100 nM). Nonspecific binding is subtracted from the total binding and the difference is defined as specific binding.

In a further assay the target is T2, ETB receptor (Sus scrofa, UniProt P35463).
T2 construct: The plasma membrane of porcine lung; from tissue; host or cells: porcine lung plasma membrane
T2 sequence (P35463 27-443): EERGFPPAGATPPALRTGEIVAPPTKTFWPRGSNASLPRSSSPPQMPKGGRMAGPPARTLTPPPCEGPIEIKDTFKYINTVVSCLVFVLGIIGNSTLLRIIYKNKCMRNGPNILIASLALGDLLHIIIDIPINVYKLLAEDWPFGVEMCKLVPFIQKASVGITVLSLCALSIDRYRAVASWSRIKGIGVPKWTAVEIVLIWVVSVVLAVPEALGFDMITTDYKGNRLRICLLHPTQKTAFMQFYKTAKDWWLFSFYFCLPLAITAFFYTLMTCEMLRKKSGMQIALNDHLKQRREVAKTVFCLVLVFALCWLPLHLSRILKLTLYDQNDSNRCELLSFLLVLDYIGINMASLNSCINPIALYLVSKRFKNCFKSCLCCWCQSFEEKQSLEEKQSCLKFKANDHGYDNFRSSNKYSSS
In words: Endothelin (ET) receptor binding assay, ETB ([125I]ET-3 alone, porcine lung plasma membrane). The following applies: for inhibition at 0.1 µM: 10^-7 M of the test compound, specific ETB binding; for Ki: from inhibition curves for the binding of [125I]ETs. The protocol:
as §1

The next assay deals with T3, guinea pig trachea (Cavia porcellus, UniProt H0VTF3).
T3 construct: The trachea which is isolated from male Hartley guinea pigs; from tissue; host or cells: guinea pig (Hartley) tracheal rings, epithelium removed
T3 sequence (H0VTF3 27-415): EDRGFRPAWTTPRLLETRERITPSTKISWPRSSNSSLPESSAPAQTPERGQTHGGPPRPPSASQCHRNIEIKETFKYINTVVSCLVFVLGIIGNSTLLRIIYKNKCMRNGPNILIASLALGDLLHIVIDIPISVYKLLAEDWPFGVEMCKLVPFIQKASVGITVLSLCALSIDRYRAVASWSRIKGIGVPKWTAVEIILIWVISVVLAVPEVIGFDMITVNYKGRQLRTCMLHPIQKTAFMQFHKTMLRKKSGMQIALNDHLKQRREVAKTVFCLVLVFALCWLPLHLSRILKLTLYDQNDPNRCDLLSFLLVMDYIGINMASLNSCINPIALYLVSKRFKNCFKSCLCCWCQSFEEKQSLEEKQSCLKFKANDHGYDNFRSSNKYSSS
The assay is described as follows: Contraction of guinea pig trachea (inhibition of ET-3 induced contraction). To be noted: ET-3 contraction; Krebs-Henseleit solution; 60 mM KCl reference standard; read-out: pA2 (converted). As for the experimental part:
Contraction assays are performed basically according to the published method (M. Takai et al. Biochem. Biophys. Res. Commun. 184, 953-959, 1992). The trachea which is isolated from male Hartley guinea pigs weighing 350-500 g, is cut into rings of approximately 2 mm length after removal of the adherent fat and connective tissues. The epithelium is removed mechanically from the rings. The preparations are placed in organ baths containing a Krebs-Henseleit or Tyrode solution at 37° C., pH 7.4 bubbled with 95% O2 and 5% CO2. Tension is measured isometrically via a force-displacement transducer (Nikhon Kohden, Tokyo, TB-612T) under an initial tension of 1 g. Concentration-response curves for ET-3 are obtained by its cumulative application. Inhibitory activities of given compounds are investigated by the addition of their DMSO solutions into the baths 10 to 40 min before the addition of ET-3. These activities are evaluated numerically by pA2 values which are negative logarithms of compound concentrations inducing a shift of the ET-3 concentration-effective curves toward the 2-fold higher concentration range of ET-3. Contraction produced by 60 mM KCl or 10 μM carbachol is used as a reference standard.

As to `Cc1cc(C)cc(C(=O)N(C)C(C(=O)N[C@@H](Cc2c[nH]c3ccccc23)C(=O)O)C(c2ccccc2)c2ccccc2)c1` (some centres unmarked) [Example 57, N-(3,5-dimethylbenzoyl)-N-methyl-(D,L)-3-(diphenyl)alanyl-(L)-tryptophan], the inhibition (as a rule, the relative decrease from the control value, in per cent) at 10 µM on ETA receptor was 34%. At 0.1 µM the inhibition at ETB receptor was 95%.
On the same counts, the results for `Cc1cc(C)cc(C(=O)N(C)[C@H](Cc2ccc(-c3ccccc3)cc2)C(=O)N[C@@H](Cc2c[nH]c3ccccc23)c2nn[nH]n2)c1` [Example 4, 5-[N-(3,5-dimethylbenzoyl)-N-methyl-(D)-(4-phenylphenyl)alanyl-(L)-tryptophanyl]-1H-tetrazole] are 74% and 93%.
The corresponding values for `Cc1cc(C)cc(C(=O)N(C)[C@H](Cc2ccc(-c3ccccc3)cc2)C(=O)NC(Cc2csc3ccccc23)C(=O)O)c1` (some centres unmarked) [Example 7] are 77% and 87%.
The corresponding values for `COc1ccc(C[C@H](C(=O)N[C@@H](Cc2c[nH]c3ccccc23)C(=O)O)N(C)C(=O)c2cc(C)cc(C)c2)cc1` [Example 65, N-(3,5-dimethylbenzoyl)-N-methyl-O-methyl-(D)-tyrosyl-(L)-tryptophan] are 47% and 59%.
Take `Cc1cc(C)cc(C(=O)N(C)[C@H](Cc2ccc(-c3ccccc3)cc2)C(=O)CC(Cc2c[nH]c3ccccc23)C(=O)O)c1` (some centres unmarked) [Example 84]: on ETA receptor, the inhibition at 10 µM stood at 46%. The same molecule registered an inhibition at 0.1 µM on ETB receptor of 70%.
In the case of `Cc1cc(C)cc(C(=O)N(C)[C@H](Cc2ccc(-c3ccno3)cc2)C(=O)N[C@@H](Cc2c[nH]c3ccccc23)C(=O)O)c1` [Example 95, N-(3,5-dimethylbenzoyl)-N-methyl-(D)-3-[4-(5-isoxazolyl)phenyl]alanyl-(L)-tryptophan], at ETA receptor, the inhibition at 10 µM is 98% and the Ki (commonly a dissociation constant, usually derived from enzyme kinetics or from competition with a known ligand) stood at 45 nM. Besides, on ETB receptor, at 0.1 µM the inhibition was 98% and the Ki came out at 0.21 nM.
As for `Cc1cc(C)cc(C(=O)N(C)[C@H](Cc2ccc(-c3ccccc3)cc2)C(=O)N(C)[C@@H](Cc2c[nH]c3ccccc23)C(=O)O)c1` [Example 12, N-(3,5-Dimethylbenzoyl)-N-methyl-(D)-(4-phenylphenyl)alanyl-N-methyl-(L)-tryptophan], at ETA receptor, the inhibition at 10 µM was found to be 36%. At ETB receptor, this molecule had an inhibition at 0.1 µM of 91%.
For `Cc1cc(C)cc(C(=O)N(C)[C@H](Cc2ccc(-c3ccsc3)cc2)C(=O)N[C@@H](Cc2c[nH]c3ccccc23)C(=O)O)c1` [Example 91, N-(3,5-dimethylbenzoyl)-N-methyl-(D)-3-[4-(3-thienyl)phenyl]alanyl-(L)-tryptophan], on ETA receptor, the inhibition at 10 µM was 100% and the Ki was 54 nM. In addition, on ETB receptor, the inhibition at 0.1 µM came out at 100% and the Ki came to 0.23 nM.
Take `Cc1cc(C)cc(C(=O)N(C)[C@H](Cc2ccccc2)C(=O)N[C@@H](Cc2c[nH]c3ccccc23)C(=O)O)c1` [Example 1, N-(3,5-Dimethylbenzoyl)-N-methyl-(D)-phenylalanyl-(L)-tryptophan]: the Kb at guinea pig trachea is 501 nM. Also, the inhibition at 10 µM at ETA receptor was 37%. Also, testing at 0.1 µM at ETB receptor gave an inhibition of 55%.
`Cc1cc(C)cc(C(=O)N(C)[C@H](Cc2ccc(-c3ccccc3)cc2)C(=O)N[C@@H](Cc2c[nH]c3ccccc23)C(=O)O)c1` [Example 55, N-(3,5-Dimethylbenzoyl)-N-methyl-(D)-(4-phenylphenyl)alanyl-(L)-tryptophan]: on ETA receptor, the inhibition at 10 µM was determined as 94% and the Ki was 440 nM. In addition, at ETB receptor, the inhibition at 0.1 µM came out at 100% and the Ki stood at 1 nM.
Take `Cc1cc(C)cc(C(=O)N(C)[C@H](Cc2ccc(-c3cccs3)cc2)C(=O)N[C@@H](Cc2c[nH]c3ccccc23)C(=O)O)c1` [Example 93, N-(3,5-dimethylbenzoyl)-N-methyl-(D)-3-[4-(2-thienyl)phenyl]alanyl-(L)-tryptophan]: the inhibition constant Ki came to 87 nM on ETA receptor and 0.6 nM on ETB receptor.
